“Also recorded” adds a separate entry of the source. Like-named read-outs stand apart in the source and are kept apart here.
Assays:
[1] = Stability in human liver S9 fractions; assay type: in vitro ADME; conditions: with phase 1 and 2 cofactors, read-out: t1/2 in human liver S9 fractions
Procedure: The highest plasma concentrations generally occurred in 1-2 hours. […] The highest level of inhibition was ˜35% for 2C19 at a 30 μM concentration. […] Lastly, VGX-1027 is stable in human liver S9 fractions (with phase 1 and 2 cofactors) with t1/2>90 minutes, which indicates a low likelihood of metabolism in the liver.

[2] = Placebo-controlled ascending single-dose study in healthy subjects (CAT001); assay type: in vivo, human; conditions: for Cmax / half-life / AUC / Tmax / AUC(0-t): human, in vivo, oral; for AUC(0-t): read-out: AUC (0-24)
Procedure: FIG. 21. […] Subjects were administered from 1 mg to 800 mg of VGX1027.
A placebo-controlled, ascending single-dose study was performed to evaluate the safety and pharmacokinetics of VGX-1027 in healthy human subjects. Study was performed upon 7 groups of subjects: group 1: 1 mg of VGX-1027 after fasting; group 2: 10 mg of VGX-1027 after fasting; group 3: 100 mg of VGX-1027 after fasting; group 4: 200 mg of VGX-1027 after fasting; group 5: 400 mg of VGX-1027 after fasting; group 6: 800 mg of VGX-1027 after fasting; and group 7: 100 mg of VGX-1027 after fasting, and after fed.

NF-kB = NF-kB activation in human macrophages; assay type: cell-based; conditions: LPS induced, monocyte-derived human macrophages
MLD-STZ-induced diabetes = test: Streptozotocin (MLD-STZ) induced diabetes; assay type: in vivo, CBA/H mice
Procedure: (§1) (A) Euglycaemic female 12 week old NOD mice were treated intraperitoneally with either 20 mg/kg bw VGX-1027 or its vehicle six times a week from the 12th until the 25th week of age. An additional control group of mice was left untreated. Each group consisted of 16 mice. The data are representative of two independent experiments that were merged because of interstudies variability lower than 10%. Statistical analysis was performed by Logrank (Mantel-Cox). (B) Plasma glucose levels in control CBA/H mice receiving STZ (40 mg/kg/day, for 5 consecutive days) in conjunction with 12 daily intreperitoneum injections of vehicle (STZ), or in mice treated with STZ and VGX-1027 given as a continuous 12-day treatment. 100 mg/kg bw of VGX-1027, administered orally from day −1 to day +10. Results from a representative experiment are presented as mean±SD for seven to eight mice per group. *p<0.05 refers to treatment with MLD-STZ.
Both intraperitoneal and oral treatment with VGX-1027 suppressed clinical development of diabetes. Clinical development of diabetes was attempted to be induced in CBA/H mice by multiple low doses of streptozotocin. CBA/H mice developed sustained hyperglycemia over a 2-week period following MLD-STZ injections. As expected, CBA/H control mice treated with the vehicle of VGX-1027 either orally or intraperitoneally developed diabetes with sustained hyperglycemia developed over a 2-week period following MLD-STZ injections.
The effect of VGX-1027 with STZ-induced diabetes was also evaluated. STZ is a DNA alkylating agent with particular toxicity to pancreatic β cells. VGX-1027 was administered orally for 12 days, and STZ was administered into mice for 5 consecutive days starting a day after VGX-1027 treatment.

spontaneous diabetes = test: Spontaneous diabetes in NOD mice; assay type: in vivo; conditions: i.p. 20 mg/kg 6 times a week, week 12 to 25
Procedure: as §1

STAT3 = test: IL-6 induced STAT3 phosphorylation in CD4+ T cells (Western blot); assay type: cell-based; conditions: IL-6 20 ng/ml, 10 uM
Procedure: FIG. 17. Western blot (A) and relative densitometric analysis (B) of the levels of phospho-STAT3 in CD4+ T cells after stimulation with IL-6.
In vitro T-cell treatment: Naive, sorted CD4+ T cells were obtained from the University of Pennsylvania School of Medicine, Immunology Clinical Core, cultured in vitro with IL-6 (20 ng/ml) in the presence or absence of VGX1027 (10 uM) for 0, 30 min, 1 hr, 2 hrs and 5 hrs. At the end of the incubation period, cells were lysed for 30 min at 4° C. by using the Nonidet P-40 lysis buffer (Invitrogen) supplemented with a phosphatase inhibitor mixture (PhosSTOP) and a protease inhibitor mixture (Complete) as directed by the manufacturer (Roche Applied Science). Lysates were collected and spun at 10,000 rpm for 5 min at 4° C., and then, 50 ug of proteins were mixed with 2× sample buffer (Invitrogen) for subsequent 4-12% SDS-PAGE electrophoresis. Afterward, proteins were transferred to nitrocellulose using the iBlot Dry Blotting System (Invitrogen), immunodetection was performed with the SNAP i.d. Protein Detection System (Millipore) using specific p-STAT3 and STAT3 monoclonal antibodies (Cell Signaling), and the expressed proteins were visualized with HRP-conjugated goat antimouse IgG using an ECL detection system (Amersham Biosciences, Piscataway, N.J.).

SEB-induced lethal shock = test system: SEB-induced lethal shock; parameters: species or system mice; conditions: mouse, in vivo
DNBS-induced colitis = conditions: DNBS model; Mangano et al. 2008; cited from earlier work
[3] = 1 mg, single dose 1 mg, fasted, geometric mean
[4] = 10 mg, single dose 10 mg, fasted, geometric mean
[5] = 100 mg, Fasted vs Fed: 100 mg fasted, geometric mean
[6] = 100 mg, Fasted vs Fed: 100 mg fed, geometric mean
[7] = 100 mg, single dose 100 mg, fasted, geometric mean
[8] = 200 mg, single dose 200 mg, fasted, geometric mean
[9] = 400 mg, single dose 400 mg, fasted, geometric mean
[10] = 800 mg, single dose 800 mg, fasted, geometric mean

## O=C(O)CC1CC(c2ccccc2)=NO1 (stereo not shown) [VGX-1027, 3-phenyl-4,5-dihydro-5-isoxazoleacetic acid]
[1]
  half-life: > 1.5 h
[2]; human studies
  Grade 3 or 4 AEs: No Grade 3 or 4 AEs were reported
  SAEs: no SAEs were reported
[2]; [3]
  Cmax: 50 ng/mL
  half-life: 7.2 h
[2]; 1 mg, single dose 1 mg, fasted, geometric mean, read-out: AUC
  AUC: 460 ng·h/mL
[2]; 1 mg, single dose 1 mg, fasted, median
  Tmax: 1 h
[2]; [4]
  Cmax: 1100 ng/mL
  half-life: 4.9 h
[2]; 10 mg, single dose 10 mg, fasted, geometric mean, read-out: AUC
  AUC: 4430 ng·h/mL
[2]; 10 mg, single dose 10 mg, fasted, median
  Tmax: 0.5 h
[2]; [5]
  Cmax: 6500 ng/mL
  half-life: 5.9 h
[2]; 100 mg, Fasted vs Fed: 100 mg fasted, geometric mean, read-out: AUC
  AUC: 37800 ng·h/mL
[2]; 100 mg, Fasted vs Fed: 100 mg fasted, median
  Tmax: 1.25 h
[2]; [6]
  Cmax: 4600 ng/mL
  half-life: 6.3 h
[2]; 100 mg, Fasted vs Fed: 100 mg fed, geometric mean, read-out: AUC
  AUC: 55700 ng·h/mL
[2]; 100 mg, Fasted vs Fed: 100 mg fed, median
  Tmax: 3.5 h
[2]; 100 mg, Single Dose (CAT001) 100 mg
  Tmax: 1.8 h
[2]; 100 mg, Single Dose (CAT001) 100 mg, Geo Mean
  Cmax: 9070 ng/mL
[2]; [7]
  Cmax: 9100 ng/mL
  half-life: 8.8 h
[2]; 100 mg, single dose 100 mg, fasted, geometric mean, read-out: AUC
  AUC: 74600 ng·h/mL
[2]; 100 mg, single dose 100 mg, fasted, median
  Tmax: 1.75 h
[2]; 200 mg, Single Dose (CAT001) 200 mg
  Tmax: 1.5 h
[2]; 200 mg, Single Dose (CAT001) 200 mg, Geo Mean
  Cmax: 15700 ng/mL
[2]; 200 mg, Single Dose (CAT001) 200 mg, Geo Mean, read-out: AUC (AUC to 12 hours)
  AUC: 78500 ng·h/mL
[2]; [8]
  Cmax: 15700 ng/mL
  half-life: 7.7 h
[2]; 200 mg, single dose 200 mg, fasted, geometric mean, read-out: AUC
  AUC: 111000 ng·h/mL
[2]; 200 mg, single dose 200 mg, fasted, median
  Tmax: 1.5 h
[2]; [9]
  Cmax: 23800 ng/mL
  half-life: 6.7 h
[2]; 400 mg, single dose 400 mg, fasted, geometric mean, read-out: AUC
  AUC: 155000 ng·h/mL
[2]; 400 mg, single dose 400 mg, fasted, median
  Tmax: 1.25 h
[2]; [10]
  Cmax: 43200 ng/mL
  half-life: 7.9 h
[2]; 800 mg, single dose 800 mg, fasted, geometric mean, read-out: AUC
  AUC: 330000 ng·h/mL
[2]; 800 mg, single dose 800 mg, fasted, median
  Tmax: 2 h
[2]; Single Dose (CAT001) 100 mg, Geo Mean
  AUC(0-t): 66800 ng·h/mL
[2]; Single Dose (CAT001) 200 mg, Geo Mean
  AUC(0-t): 98400 ng·h/mL
[2]; oral pill
  tolerability in humans: safe and well-tolerated
[2]; up to 800 mg QD single dose
  dosing toxicities: No dosing toxicities were observed
NF-kB
  DNA binding of NF-kB: powerfully inhibits in a dose-dependent fashion
MLD-STZ-induced diabetes; intraperitoneally
  diabetogenic effect of MLD-STZ: significantly reduced
MLD-STZ-induced diabetes; orally (100 mg/kg, 12 days), 100 mg/kg
  development of hyperglycemia: did not develop hyperglycemia; also recorded: significantly reducing
MLD-STZ-induced diabetes; orally, 12 days
  infiltration of immune cells, atrophy and loss of islet margins in pancreas: prevented
Spontaneous diabetes; by 25 weeks
  mice developing TID: 31.3%
Spontaneous diabetes
  tolerability of prolonged treatment: well tolerated
STAT3
  magnitude of STAT3 phosphorilation: overall reduction
  time of maximum STAT3 activation after IL-6: 1 h
SEB-induced lethal shock
  symptomology associated with SEB challenge: attenuated
SEB-induced lethal shock; ip
  survival: 50%
DNBS-induced colitis
  colonic production of proinflammatory cytokines (IL-1β, TNF-α, IL-12p70, IFN-γ): reduced colonic production

Reference: patent publication US20150064221A1, “COMPOUNDS HAVING IMMUNOMUDULATOR ACTIVITY” (priority 2012, published 2015)
